IC50 and Ki data for 14 compounds are collected here from US20250100993A1, “2-SUBSTITUTED THIAZOLE HSD17B13 INHIBITORS AND USES THEREOF” (Inipharm, Inc., priority 2022, published 2025).

SMILES strings stand for the structures.

In one experiment the target is HSD17B13 (Homo sapiens (Human), UniProt Q7Z5P4). Put plainly: LC/MS estrone detection assay for HSD17B13 activity (estradiol to estrone). It counts as biochemical. The following applies: estradiol substrate, LC-MS/MS estrone detection. On the procedure: The liquid chromatography/mass spectrometry (LC/MS) estrone detection assay monitors the conversion of estradiol to estrone by HSD17B13. This assay was undertaken in a 96 wp format (Eppendorf deep well Plate 96/500) in an 80 μl reaction volume containing: 4 μM of Estradiol (E2; Cayman; Ser. No. 10/006,315), 6 mM NAD+(Sigma; #N0623) and 30 nM HSD17B13 enzyme (in-house; E. coli expressed His-tagged, purified, soluble protein) in a reaction containing 1M potassium phosphate buffer pH 7.4, with 0.5% vehicle (DMSO). Reactions were incubated for 2 hours at 26.5° C., and estradiol (E2) conversion to estrone (E1) was quantitated by LC-MS/MS based analyte detection for both E2 and E1 using LCMS grade reagents.
HSD17B13, sequence (Q7Z5P4 20-300): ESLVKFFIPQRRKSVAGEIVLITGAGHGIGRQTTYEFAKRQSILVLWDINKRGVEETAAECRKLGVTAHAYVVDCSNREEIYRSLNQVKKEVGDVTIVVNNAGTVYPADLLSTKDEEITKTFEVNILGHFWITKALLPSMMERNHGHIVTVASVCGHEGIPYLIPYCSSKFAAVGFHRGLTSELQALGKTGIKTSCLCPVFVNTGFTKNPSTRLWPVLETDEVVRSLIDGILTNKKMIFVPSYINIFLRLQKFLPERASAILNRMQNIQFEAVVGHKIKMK
Reactions were terminated by the addition of two volumes of acetonitrile (MeCN; LCMS grade; CAS #75/05/8) containing deuterated (D4)-E1 used as internal standard (Clear Synth; #CS-T-54273; 500 ng/mL final concentration). Samples were applied to pre-prepared Bond Elut-C18 extraction cartridges (3 mL; Agilent; Ser. No. 12/102,028), washed and eluted in MeCN. Eluates were dried under nitrogen and re-suspended in 60% methanol (LCMS grade methanol; CAS #67/56/1) before submission for analysis. Aqueous linearity for E2 and E1 were included for quantification.
Analysis of samples was undertaken on a XBridge BEH C18 column (Waters; #186003033) using 0.1% Diethyl Amine in MeCN (mobile phase A; DEA CAS #109-89-7) and 0.1% Diethyl Amine in milli-Q water (mobile phase B) in a 3 min gradient allowing 25% B. Analytes were detected in negative mode using MRM analysis, with E2 having a RT of 1.85 min and E1 having a RT of 2 min. Activity of the enzyme, in the absence of NAD+, was used to evaluate specificity of conversion. Enzyme activity in the presence of test samples was expressed as a percentage of the uninhibited enzyme activity, and plotted versus inhibitor concentration. Non-linear regression was performed using a four-parameter logistic model and GraphPad Prism software (GraphPad Software, La Jolla, CA). All assessments were undertaken in duplicate evaluations and pooled during extraction process and subsequently injected as duplicates for LC-MS/MS analysis.
For `Cn1ncc(C(=O)NCc2ccccc2C(F)(F)F)c1NC(=O)c1cc(Cl)c(O)c(Cl)n1` [Example 10, 4,6-dichloro-5-hydroxy-N-(1-methyl-4-((2-(trifluoromethyl)benzyl)carbamoyl)-1H-pyrazol-5-yl)picolinamide], the 50% inhibitory concentration (IC50) fell in the range of 1 to 10 µM. The compound `Cc1nc(C(=O)NCc2ccccc2C(F)(F)F)c(NC(=O)c2cc(Cl)c(O)c(Cl)n2)s1` [Example 26, 5-(4,6-dichloro-5-hydroxypicolinamido)-2-methyl-N-(2-(trifluoromethyl)benzyl)thiazole-4-carboxamide] displayed an IC50 of 0.1 to 0.5 µM.

Compound `O=C(Nc1scnc1C(=O)NC12C[C@H]3C[C@@H](C1)C[C@@H](C2)C3)c1cc(Cl)c(O)c(Cl)n1` [Example 40, N-((3s,5s,7s)-adamantan-1-yl)-5-(4,6-dichloro-5-hydroxypicolinamido)thiazole-4-carboxamide] gave an IC50 of at most 0.1 µM. `O=C(Nc1n[nH]cc1C(=O)NCc1ccccc1C(F)(F)F)c1cc(Cl)c(O)c(Cl)c1` [Example 3, 3-(3,5-dichloro-4-hydroxybenzamido)-N-(2-(trifluoromethyl)benzyl)-1H-pyrazole-4-carboxamide] returned an IC50 of at most 0.1 µM. In turn, `O=C(Nc1scnc1C(=O)NCc1ccc2c(c1)OCO2)c1cc(Cl)c(O)c(Cl)n1` [Example 41, N-(benzo[d][1,3]dioxol-5-ylmethyl)-5-(4,6-dichloro-5-hydroxypicolinamido)thiazole-4-carboxamide] yielded an IC50 of 0.1 to 0.5 µM.

For the compound `Cc1nsc(NC(=O)c2cc(Cl)c(O)c(Cl)n2)c1C(=O)NCc1ccccc1OC(F)(F)F` [Example 29, 5-(4,6-dichloro-5-hydroxypicolinamido)-3-methyl-N-(2-(trifluoromethoxy)benzyl)isothiazole-4-carboxamide], the IC50 fell in the range of 0.1 to 0.5 µM. On to `Cc1ccc(NC(=O)c2cc(Cl)c(O)c(Cl)c2)c2c(=O)n(Cc3ccccc3C(F)(F)F)nnc12` [Example 11, 3,5-dichloro-4-hydroxy-N-(8-methyl-4-oxo-3-(2-(trifluoromethyl)benzyl)-3,4-dihydrobenzo[d][1,2,3]triazin-5-yl)benzamide], for which the IC50 was at most 0.1 µM. Still for that read-out and setting: for `O=C(Nc1scnc1C(=O)NC1(c2ccccc2C(F)(F)F)CC1)c1cc(Cl)c(O)c(Cl)n1` [Example 24, 5-(4,6-dichloro-5-hydroxypicolinamido)-N-(1-(2-(trifluoromethyl)phenyl)cyclopropyl)thiazole-4-carboxamide] the value was 0.1 to 0.5 µM; for `O=C(Nc1n[nH]cc1C(=O)NCc1ccccc1C(F)(F)F)c1cc(Cl)c(O)c(Cl)n1` [Example 1, 4,6-dichloro-5-hydroxy-N-(4-((2-(trifluoromethyl)benzyl)carbamoyl)-1H-pyrazol-3-yl)picolinamide], at most 0.1 µM; for `Cc1ccc(NC(=O)c2cc(Cl)c(O)c(Cl)n2)c2c(=O)n(Cc3ccccc3C(F)(F)F)nnc12` [Example 12, 4,6-dichloro-5-hydroxy-N-(8-methyl-4-oxo-3-(2-(trifluoromethyl)benzyl)-3,4-dihydrobenzo[d][1,2,3]triazin-5-yl)picolinamide], 0.1 to 0.5 µM. With `CC(C)(C)CCNC(=O)c1ncsc1NC(=O)c1cc(Cl)c(O)c(Cl)n1` [Example 35, 5-(4,6-dichloro-5-hydroxypicolinamido)-N-(3,3-dimethylbutyl)thiazole-4-carboxamide], the concentration for half-maximal inhibition (IC50) was 0.1 to 0.5 µM. In the case of `Cc1nsc(NC(=O)c2cc(Cl)c(O)c(Cl)n2)c1C(=O)NCc1ccccc1C(F)(F)F` [Example 38, 5-(4,6-dichloro-5-hydroxypicolinamido)-3-methyl-N-(2-(trifluoromethyl)benzyl)isothiazole-4-carboxamide], the IC50 was at most 0.1 µM.

On to `O=C(Nc1scnc1C(=O)NC1CCC2(CC1)CNC2)c1cc(Cl)c(O)c(Cl)n1` [Example 37, 5-(4,6-dichloro-5-hydroxypicolinamido)-N-(2-azaspiro[3.5]nonan-7-yl)thiazole-4-carboxamide], for which the IC50 was above 10 µM.

Still in this experiment, the particulars now being: estradiol substrate, LCMS; read-out: HSD17B13 Inhibition_Estradiol Substrate_LCMS: Ki.
In the case of `O=C(Nc1sc(-c2ccc[nH]c2=O)nc1C(=O)NCc1ccccc1C(F)(F)F)c1cc(Cl)c(O)c(Cl)c1` [Example 77], the Ki is at most 0.05 µM.
